Reference: patent US12454509B2, “Local anesthetics with selective-sensory nerve blockade” (Children's Medical Center Corporation, priority 2019, dated 2025)

Experiments:
[1] = tested on: PC12 cells; assay: Cytotoxicity in PC12 cells; format: cell-based, rat; settings: for cytotoxicity compared with ropivacaine and bupivacaine (in words): FIG. 1 / Table 2; for IC50: Rattus norvegicus, PC-12, cytotoxicity, exposure up to 24 h
Procedure: (§1) C2C12 Mouse myoblasts [American Type Culture Collection (ATCC) CRL-1772] were cultured to proliferate in DMEM supplemented with 20% FBS and 100 Penicillin Streptomycin. Cell culture supplies were obtained from Invitrogen, unless otherwise noted. Cells were plated at 50,000 cells per mL in DMEM with 2% horse serum and 1% Penn Strep, and left to differentiate into myotubules for 10-14 days. During differentiation, media were exchanged every 2 to 3 days. Cell viability and proliferation were studied after exposures to drugs for up to 24 h. PC12 cells (ATCC, CRL-1721) originating from rat adrenal gland pheochromocytoma were grown in 24-well tissue culture dishes (CellBind; Corning) with F-12K (ATCC) supplemented with 12.5% horse serum (Gibco), 2.5% FBS (Gibco), and 1% Penn Strep (Sigma). For neuronal induction (PC12), cells were seeded at a relative low density of 5×10^4 cells/cm2 and 50 ng/mL NGF was added 24 h after seeding. Cell viability and proliferation were evaluated as for C2C12 cells. Experiments with PC12 cells were conducted for up to 24 hours.

[2] = molecular target: peak Nav1.5 (Homo sapiens, UniProt Q14524); assay: Whole-cell patch clamp, peak Nav1.5 current in stably transfected HEK cells; settings: for peak Nav1.5 current amplitude, percent reduction: individual cell (raw data); for inhibition at 1 µM: HEK293, read-out: peak Nav1.5 current amplitude, percent reduction, 1 μM, individual cell (raw data); for inhibition at 10 µM: HEK293, read-out: peak Nav1.5 current amplitude, percent reduction, 10 μM, individual cell (raw data); for inhibition at 1000 µM: HEK293, read-out: peak Nav1.5 current amplitude, percent reduction, 1000 μM, individual cell (raw data)
Chain of peak Nav1.5 (Q14524 whole entry): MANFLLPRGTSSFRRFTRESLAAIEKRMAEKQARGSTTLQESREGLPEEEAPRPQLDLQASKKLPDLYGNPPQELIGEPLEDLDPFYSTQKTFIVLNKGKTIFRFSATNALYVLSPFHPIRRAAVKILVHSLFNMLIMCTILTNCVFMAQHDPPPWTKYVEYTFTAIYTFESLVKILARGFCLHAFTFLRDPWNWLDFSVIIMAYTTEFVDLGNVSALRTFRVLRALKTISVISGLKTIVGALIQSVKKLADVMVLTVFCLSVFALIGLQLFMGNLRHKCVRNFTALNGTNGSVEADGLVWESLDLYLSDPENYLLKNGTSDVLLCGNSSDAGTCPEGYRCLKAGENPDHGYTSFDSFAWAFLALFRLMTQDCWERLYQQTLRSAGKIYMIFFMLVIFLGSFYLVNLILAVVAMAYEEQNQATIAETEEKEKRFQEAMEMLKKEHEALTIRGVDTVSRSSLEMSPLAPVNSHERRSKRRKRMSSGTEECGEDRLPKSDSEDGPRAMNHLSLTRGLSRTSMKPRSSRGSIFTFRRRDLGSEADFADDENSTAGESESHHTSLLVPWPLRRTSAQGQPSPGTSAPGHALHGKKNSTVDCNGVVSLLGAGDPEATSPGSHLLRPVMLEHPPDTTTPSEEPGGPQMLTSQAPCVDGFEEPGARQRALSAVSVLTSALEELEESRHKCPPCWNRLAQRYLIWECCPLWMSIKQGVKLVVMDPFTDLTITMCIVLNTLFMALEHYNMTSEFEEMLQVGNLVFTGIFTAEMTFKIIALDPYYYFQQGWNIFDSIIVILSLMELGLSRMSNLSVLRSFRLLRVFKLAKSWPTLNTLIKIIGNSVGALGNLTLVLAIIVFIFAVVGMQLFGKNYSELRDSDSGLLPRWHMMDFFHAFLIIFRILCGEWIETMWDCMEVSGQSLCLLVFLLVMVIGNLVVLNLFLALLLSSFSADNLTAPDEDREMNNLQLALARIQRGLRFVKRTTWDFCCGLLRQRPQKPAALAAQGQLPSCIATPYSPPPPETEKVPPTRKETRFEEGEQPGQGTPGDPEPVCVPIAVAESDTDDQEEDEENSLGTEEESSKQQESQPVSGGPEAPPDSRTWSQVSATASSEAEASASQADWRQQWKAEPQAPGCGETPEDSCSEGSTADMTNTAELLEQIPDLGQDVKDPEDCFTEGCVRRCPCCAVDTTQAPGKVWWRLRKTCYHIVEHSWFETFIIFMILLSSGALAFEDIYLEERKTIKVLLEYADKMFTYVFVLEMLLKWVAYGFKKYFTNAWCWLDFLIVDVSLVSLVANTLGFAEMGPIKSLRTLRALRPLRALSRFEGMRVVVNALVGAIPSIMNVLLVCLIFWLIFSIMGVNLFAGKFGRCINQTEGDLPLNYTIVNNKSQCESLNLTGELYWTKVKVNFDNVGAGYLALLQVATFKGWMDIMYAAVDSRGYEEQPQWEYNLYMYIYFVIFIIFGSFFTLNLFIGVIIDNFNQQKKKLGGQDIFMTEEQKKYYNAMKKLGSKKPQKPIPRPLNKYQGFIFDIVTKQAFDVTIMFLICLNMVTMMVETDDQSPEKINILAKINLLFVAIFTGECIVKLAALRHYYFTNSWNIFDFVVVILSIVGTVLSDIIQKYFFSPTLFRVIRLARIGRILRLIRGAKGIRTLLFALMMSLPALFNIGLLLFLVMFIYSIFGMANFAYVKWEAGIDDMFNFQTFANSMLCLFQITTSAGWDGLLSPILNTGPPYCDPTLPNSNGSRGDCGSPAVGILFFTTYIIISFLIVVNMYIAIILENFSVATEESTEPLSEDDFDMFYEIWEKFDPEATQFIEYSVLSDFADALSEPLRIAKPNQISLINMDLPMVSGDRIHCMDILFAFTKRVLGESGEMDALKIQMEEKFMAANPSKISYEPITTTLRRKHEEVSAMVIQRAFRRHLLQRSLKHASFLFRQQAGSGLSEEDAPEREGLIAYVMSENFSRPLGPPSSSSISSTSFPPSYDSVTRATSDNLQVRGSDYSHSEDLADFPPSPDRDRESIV
Procedure: (§2) These experiments were designed to examine the acute effects of 4Sa (ZYK2312-1), 4Sb (ZYK2312-2), and bupivacaine on hERG and peak Nav1.5 currents recorded from stably transfected HEK cells.
(§3) Experimental Methods: Currents were measured using the whole-cell variant of the patch clamp method. Glass pipettes were pulled from borosilicate glass by a horizontal puller (Sutter Instruments, USA). Pipette tip resistance was approximately 1 to 2 MΩ when filled with internal solutions. Series resistance was compensated electronically by approximately 60-80%. Bath temperature was measured by a thermistor placed near the cell under study. An Axopatch 1-B amplifier (Axon Instruments, Foster City, CA) was used for whole-cell voltage clamping. Creation of voltage clamp pulses and data acquisition was controlled by a computer running pClamp software (ver 9.2 Axon Instruments). After rupture of the cell membrane (entering whole-cell mode), current kinetics and amplitudes were allowed to stabilize as the cell was dialyzed with internal solution and paced every 5 seconds (typically 2 to 3 minutes). Peak INa was elicited using a pulse pattern with fixed amplitudes (conditioning prepulse: −120 mV for 50 ms; depolarizing test step to −30 mV for 20 ms). hERG current was elicited with a 500 ms pulse to +10 mV followed by a 500 ms pulse to −40 mV (holding potential=[…]). Cells were perfused at each testing concentration until a steady-state was reached.
(§4) Raw data and mean±SEM are given. Data are presented as percent reduction of current amplitude. […] Each cell served as its own control. A nonlinear curve-fitting routine was utilized to fit a three-parameter Hill equation to the results using MicroCal Origin, version 6.0 software. The equation is:
(§5) [formula] where Vmax=100 and k and n are unconstrained variables.

[3] = tested on: sciatic nerve; assay: Sciatic nerve block in rats: duration of motor block, weight-bearing test; format: in vivo; settings: rat sciatic nerve injection 0.3 mL
Excerpt: (§6) Sciatic Nerve Block and Neurobehavioral Testing. Animals were cared for in compliance with protocols approved by the Children's Hospital Animal Care and Use Committee, and the Massachusetts Institute of Technology Committee on Animal Care, which conformed to guidelines of the International Association for the Study of Pain. Adult male Sprague-Dawley rats (Charles River Laboratories) weighing 320-450 g were housed in groups, in a 6 AM to 6 PM light-dark cycle. Under brief isoflurane-oxygen anesthesia, a 23G needle was introduced postero-medial to the greater trochanter, until bone was contacted, and 0.3 mL of test solution was injected over the sciatic nerve. Thermal nociception was assessed by a modified hotplate test, and motor function via a weight-bearing test. […] Motor strength was assessed with a weight-bearing test. In brief, the animal was held over a digital balance such that it could bear weight with 1 hind paw at a time. The maximum weight that it could bear was recorded. The duration of motor blockade was defined as the time for weight bearing to return halfway to normal from maximal block. The halfway point for each rat was defined as […].

[4] = tested on: C2C12 Mouse myoblasts; assay: Cytotoxicity in C2C12 myotubules; format: cell-based; settings: C2C12 cells; for cytotoxicity compared with ropivacaine and bupivacaine (in words): FIG. 2 / Table 2; for IC50: Mus musculus, cytotoxicity, exposure up to 24 h
Procedure: as §1

[5] = tested on: sciatic nerve; assay: Sciatic nerve block in rats: duration of thermal nociceptive (sensory) block, modified hotplate test; format: in vivo, rat; settings: for Block Duration (min) Sensory: rat sciatic nerve injection 0.3 mL; for Sensory:Motor Block Ratio: rat sciatic nerve block
Excerpt: as §6

[6] = molecular target: hERG (Homo sapiens, UniProt Q12809); assay: Whole-cell patch clamp, hERG current in stably transfected HEK cells; settings: for hERG current amplitude, percent reduction / hERG current amplitude, percent reduction, mean ± SE: human
Chain of hERG (Q12809 whole entry): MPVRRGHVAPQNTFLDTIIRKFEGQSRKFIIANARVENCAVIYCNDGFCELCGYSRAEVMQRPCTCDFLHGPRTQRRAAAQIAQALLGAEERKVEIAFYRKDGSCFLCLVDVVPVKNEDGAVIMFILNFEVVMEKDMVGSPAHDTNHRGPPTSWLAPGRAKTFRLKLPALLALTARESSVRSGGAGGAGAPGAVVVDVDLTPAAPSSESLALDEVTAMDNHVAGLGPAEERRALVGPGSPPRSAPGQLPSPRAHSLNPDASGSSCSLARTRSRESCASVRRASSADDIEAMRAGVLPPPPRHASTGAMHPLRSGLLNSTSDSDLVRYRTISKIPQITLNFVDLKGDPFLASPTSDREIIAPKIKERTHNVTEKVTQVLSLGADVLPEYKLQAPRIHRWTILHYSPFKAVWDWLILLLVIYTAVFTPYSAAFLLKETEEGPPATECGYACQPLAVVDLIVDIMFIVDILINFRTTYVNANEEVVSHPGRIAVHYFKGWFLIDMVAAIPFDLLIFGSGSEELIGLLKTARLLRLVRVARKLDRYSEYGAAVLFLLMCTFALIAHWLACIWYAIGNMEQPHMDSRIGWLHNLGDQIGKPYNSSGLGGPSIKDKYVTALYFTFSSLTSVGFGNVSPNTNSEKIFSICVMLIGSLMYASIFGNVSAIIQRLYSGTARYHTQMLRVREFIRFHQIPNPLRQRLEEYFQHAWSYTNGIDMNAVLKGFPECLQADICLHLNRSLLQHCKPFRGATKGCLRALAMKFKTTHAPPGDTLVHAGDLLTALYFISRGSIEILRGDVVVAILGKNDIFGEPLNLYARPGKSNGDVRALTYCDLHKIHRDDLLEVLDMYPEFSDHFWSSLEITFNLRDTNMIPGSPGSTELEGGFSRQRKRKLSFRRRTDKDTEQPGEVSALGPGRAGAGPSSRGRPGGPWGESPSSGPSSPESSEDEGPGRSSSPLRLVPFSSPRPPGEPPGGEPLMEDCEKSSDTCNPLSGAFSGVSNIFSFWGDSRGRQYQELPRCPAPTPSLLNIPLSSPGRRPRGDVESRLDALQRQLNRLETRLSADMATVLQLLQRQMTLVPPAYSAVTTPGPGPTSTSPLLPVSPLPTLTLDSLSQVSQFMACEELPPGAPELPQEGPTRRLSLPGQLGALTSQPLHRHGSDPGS
Procedure: as §2, §3, §4, §5

SMILES	cytotoxicity compared with ropivacaine and bupivacaine (in words) [1]	peak Nav1.5 current amplitude, percent reduction ([2]; 1 μM)	peak Nav1.5 current amplitude, percent reduction, mean ± SE ([2]; 1 μM)	peak Nav1.5 current amplitude, percent reduction ([2]; 10 μM)	peak Nav1.5 current amplitude, percent reduction, mean ± SE ([2]; 10 μM)	peak Nav1.5 current amplitude, percent reduction, mean ± SE ([2]; 100 μM)	peak Nav1.5 current amplitude, percent reduction, mean ± SE ([2]; 300 μM)	peak Nav1.5 current amplitude, percent reduction, mean ± SE ([2]; 1000 μM)	inhibition at 1 µM [2]	inhibition at 10 µM [2]	inhibition at 1000 µM [2]	Block Duration (min) Motor ([3]; dose conc 10 mM)	cytotoxicity compared with ropivacaine and bupivacaine (in words) [4]	Block Duration (min) Sensory ([5]; dose conc 10 mM)	hERG current amplitude, percent reduction ([6]; 1 μM)	hERG current amplitude, percent reduction, mean ± SE ([6]; 1 μM)	hERG current amplitude, percent reduction, mean ± SE ([6]; 10 μM)	hERG current amplitude, percent reduction, mean ± SE ([6]; 100 μM)	hERG current amplitude, percent reduction, mean ± SE ([6]; 300 μM)	hERG current amplitude, percent reduction, mean ± SE ([6]; 1000 μM)	other results
CCC[N@+]1(CC(=O)OC)CCCC[C@H]1C(=O)Nc1c(C)cccc1C.[Br-] [Compound 4Sa, 2-((2,6-Dimethylphenyl)carbamoyl)-1-(2-methoxy-2-oxoethyl)-1-propylpiperidin-1-ium bromide]	significantly less cytotoxic than ropivacaine and bupivacaine	0%	0 ± 0%	0%	0 ± 0%	2.3 ± 1.4%	5.6 ± 1.8%	14.6 ± 3.4%	0%	0%	11.2%	100 ± 60 min	significantly less cytotoxic than ropivacaine and bupivacaine	200 ± 60 min	0%	0 ± 0%	3.6 ± 0.5%	16.8 ± 4.0%	31.3 ± 2.0%	51.6 ± 2.2%	IC50 [1]: 19.2 mM; inhibition at 300 µM ([2]; HEK293, read-out: peak Nav1.5 current amplitude, percent reduction, 300 μM, individual cell (raw data)): 3.7%; IC50 [4]: 14.6 mM; IC50 [6]: 0.814 mM
CCC[N@@+]1(CC(=O)OC)CCCC[C@H]1C(=O)Nc1c(C)cccc1C.[Br-] [Compound 4Sb, 2-((2,6-Dimethylphenyl)carbamoyl)-1-(2-methoxy-2-oxoethyl)-1-propylpiperidin-1-ium bromide]	significantly less cytotoxic than ropivacaine and bupivacaine	0%	0 ± 0%	0%	0 ± 0%	0 ± 0%	4.2 ± 0.9%	13.3 ± 2.9%	0%	0%	13.8%	0 min	significantly less cytotoxic than ropivacaine and bupivacaine	90 ± 30 min	0%	0 ± 0%	0 ± 0%	1.5 ± 0.8%	6.4 ± 1.1%	18.3 ± 2.9%	IC50 ([1]; unit inferred): 20.1 mM; peak Nav1.5 current amplitude, percent reduction ([2]; 100 μM): 0%; inhibition at 100 µM ([2]; HEK293, read-out: peak Nav1.5 current amplitude, percent reduction, 100 μM, individual cell (raw data)): 0%; Block Duration (min) Motor ([3]; dose conc 15 mM): 0 min; IC50 ([4]; unit inferred): 19.3 mM; Sensory:Motor Block Ratio ([5]; dose conc 10 mM): ∞; Sensory:Motor Block Ratio ([5]; dose conc 15 mM): ∞; Block Duration (min) Sensory ([5]; dose conc 15 mM): 200 ± 30 min; hERG current amplitude, percent reduction ([6]; 10 μM): 0%
